Reference: patent US4333947A, “Substituted imidazoles and their use” (Farmos-Yhtyma Oy, priority 1980, dated 1982)
Read-outs that look alike come from different tables or passages of the source.

Columns and labels:
[1] = acute toxicity, i.v., female mice of NMRI-Strain; details: mouse, in vivo, iv
Procedure: Acute toxicity was determined by using female mice of NMRI-Strain with an age of about 7 months and weighing 30-40 g. The administration of the test compound was i.v.

[2] = test system: Sprague-Dawley rats; assay: blood pressure and pulse frequency in anesthetized rats of normal weight; format: in vivo; details: for minimal effective dose: Rattus norvegicus, iv, anesthetized rats, i.v.
Procedure: The anti-hypertensive properties of the imidazole derivatives of the present invention have been determined according to the following procedure. Sprague-Dawley rats of normal weight were first anesthetized with urethane. After this, the femoral artery was connected by way of a polyethylene tube with a blood pressure transducer. The test substance was then injected into the femoral vein and the blood pressure and the pulse frequency were registered with a recorder.

[3] = test system: Candida albicans; assay: antifungal activity in vitro, agar diffusion method, Candida albicans; format: cell-based; details: 1000 μg/ml
Procedure: (§1) The antimicrobial activity was determined in vitro according to a qualitative test for antibacterial and antifungal activity, using the agar diffusion method, against the following standard organisms: Staphylococcus aureus, Streptococcus pyogenes, Escherichia coli, Proteus mirabilis, Pseudomonas aeruginosus, Candida albicans and Aspergillus niger.

[4] = test system: Aspergillus niger; assay: antifungal activity in vitro, agar diffusion method, Aspergillus niger; format: cell-based; details: 1000 μg/ml
Procedure: as §1

[5] = test system: all the bacterial species; assay: antibacterial activity in vitro, agar diffusion method, all bacterial species; format: cell-based; details: 1000 μg/ml
Procedure: as §1

[6] = test system: rats; assay: diuretic effect in rats, urine output 0-5 hours after i.p. injection; format: in vivo
Procedure: The diuretic effect was studied in rats by collecting the urine output during 0-5 hours after i.p. injection of the compound. Before the test the rats were fasting overnight and got 10 ml water p.o. immediately before the injection.

[7] = test system: all standard bacterial and fungal species; assay: antimicrobial activity in vitro, agar diffusion method, all standard bacterial and fungal species; format: cell-based; details: 1000 μg/ml
Procedure: as §1

[8] = test system: isoprenaline-induced chronotropic and inotropic action in the isolated atrium; assay: β-blocking activity in vitro, isoprenaline-induced chronotropic and inotropic action in isolated guinea-pig atrium; format: cell-based; details: Cavia porcellus; 1 μg/ml; read-out: inhibition of isoprenaline-induced chronotropic effect
Procedure: The β-blocking activity was measured in vitro as follows: The atrium of a guinea-pig was isolated. The inhibiting activity of the compound against isoprenaline-induced chronotropic and inotropic action in the isolated atrium was measured.

[9] = test system: fungi; assay: antifungal activity in vitro, agar diffusion method, fungi; format: cell-based, Candida albicans and Aspergillus niger; details: 1000 μg/ml
Procedure: as §1

[10] = test system: arachidonic acid induced pulmonary thromboembolism; assay: antithrombotic activity in vivo, arachidonic acid induced pulmonary thromboembolism in mice; details: 10 mg/kg p.o.
Procedure: The antithrombotic activity was investigated in vivo in mice as follows: The compounds to be tested were administered orally. After this arachidonic acid was given i.v. The inhibiting activity of the test compounds against arachidonic acid induced pulmonary thromboembolism was investigated.

[11] = test system: ADP-induced aggregation of thrombocytes; assay: antithrombotic activity in vitro, ADP-induced aggregation of thrombocytes; format: cell-based; details: cow thrombocytes, 10 min incubation
Procedure: (§2) In a further test the antithrombotic activity was investigated in vitro. The inhibiting activity of the compounds against ADP- and collagen-inducedaggregation of thrombocytes was measured. In the test thrombocytes from a cow was used. To 1.2 ml of plasma containing 250000 thrombocytes/mm^3 were added 50 μl of a solution of the compound to be tested. After 10 min incubation either ADP or collagen was added. The aggregation of the thrombocytes was turbidimetrically determined at λ=605 n m.

[12] = test system: collagen-induced aggregation of thrombocytes; assay: antithrombotic activity in vitro, collagen-induced aggregation of thrombocytes; format: cell-based; details: cow thrombocytes, 10 min incubation
Procedure: as §2

[13] = test system: all other bacterial and fungal species; assay: antimicrobial activity in vitro, agar diffusion method, all other bacterial and fungal species (than E. coli and Staph. aureus); format: cell-based; details: 1000 μg/ml
Procedure: as §1

[14] = test system: E. coli; assay: antibacterial activity in vitro, agar diffusion method, E. coli; format: cell-based, Escherichia coli; details: 100 μg/ml
Procedure: as §1

[15] = test system: Staph. aureus; assay: antibacterial activity in vitro, agar diffusion method, Staph. aureus; format: cell-based, Staphylococcus aureus; details: 100 μg/ml
Procedure: as §1

[16] = read-out: dose i.v. causing a registrable lowering of the blood pressure
[17] = 1 mg/kg, 20 minutes after administration
[18] = 300 μg/kg i.v., 20 minutes after administration

Cc1[nH]cnc1C=Cc1c(Cl)cccc1Cl [4-[2-(2',6'-Dichlorophenyl)-ethenyl]-5-methyl-imidazole]
LD50 [1]: 100 mg/kg
lowering of the blood pressure ([2]; 3 mg/kg i.v., 20 minutes after administration): 30%
minimal effective dose ([2]; read-out: dose i.v. at which a decrease of pulse frequency was noticed): 1 mg/kg
minimal effective dose [2, 16]: 0.3 mg/kg
activity against Candida albicans [3]: active
activity against Aspergillus niger [4]: inactive
activity against all the bacterial species [5]: active

Clc1cccc(Cl)c1C=Cc1c[nH]cn1 [4-[2-(2',6'-Dichlorophenyl)-ethenyl]-imidazole]
LD50 [1]: 85 mg/kg
decrease of pulse frequency [2, 17]: 30%
lowering of the blood pressure [2, 17]: 25%
diuretic effect (5h) ([6]; 0.005 mg/kg i.p.): 128%
diuretic effect (5h) ([6]; 0.05 mg/kg i.p.): 132%
diuretic effect (5h) ([6]; 0.5 mg/kg i.p.): 135%
antimicrobial activity against all standard bacterial and fungal species [7]: active

Cc1cccc(C)c1/C=C/c1c[nH]cn1 [4-[2-(2',6'-Dimethylphenyl)-ethenyl]-imidazole]
LD50 [1]: 50 mg/kg
decrease of pulse frequency [2, 18]: 24%
reduction of the blood pressure [2, 18]: 20%
minimal effective dose [2, 16]: 0.01 mg/kg

Cc1[nH]cnc1C=Cc1ccccc1Cl [4-[2-(2'-Chlorophenyl)-ethenyl]-5-methyl-imidazole]
LD50 [1]: 85 mg/kg
inhibition at 1 µg/mL [8]: 67%
activity against the fungi [9]: not against the fungi
mice protected from arachidonic acid-induced pulmonary thromboembolism [10]: 4 of 5
activity against all the bacterial species [5]: active

Cc1cccc(CC=Cc2c[nH]cn2)c1C [4-[3-(2',3'-Dimethylphenyl)-1-propenyl]-imidazole]
inhibition of ADP-induced thrombocyte aggregation [11]: clearly
LD50 [1]: 75 mg/kg
decrease of the blood pressure ([2]; 0.3-1 mg/kg i.v., 20 minutes after administration): 20%
inhibition of collagen-induced thrombocyte aggregation [12]: completely

Cc1cccc(C)c1CC=Cc1c[nH]cn1 [4-[3-(2',6'-Dimethylphenyl)-1-propenyl]-imidazole]
LD50 [1]: 75 mg/kg
decrease of the blood pressure ([2]; 1-3 mg/kg i.v., 20 minutes after administration): 20%

Cc1cccc(C)c1CCCC=Cc1c[nH]cn1 [4-[5-(2',6'-Dimethylphenyl)-1-pentenyl]-imidazole]
activity against all other bacterial and fungal species [13]: active
LD50 [1]: 40 mg/kg
activity against E. coli [14]: active
inhibition at 1 µg/mL [8]: 57%
activity against Staph. aureus [15]: active
